The values that follow come from patent US9707267B2, “Beta-turn peptidomimetic cyclic compounds for treating dry eye” (Mimetogen Pharmaceuticals, Inc., priority 2008, dated 2017).

The test system of one test is p42/44 MAPK. Kind of test: Activation of p42/44 MAPK in goblet cells, Western blot (Example 2). The class given is cell-based, rat. Particulars: 5 minutes, phospho-MAPK relative to actin. On the procedure:
The activation of p42/44 MAPK was examined using Western blot techniques. Goblet cells were serum starved in serum-free RPMI for 4-6 hrs prior to the addition of PMA (100 nM), NGF (1 or 10 nM), or MIM-D3 (10 or 50 μM) for 5 minutes at 37° C. After, cells were rinsed once in cold PBS, scraped in 100 μL of 1×SDS-PAGE sample buffer [62.5 mM Tris-HCl pH 6.8, 10% glycerol, 2% SDS, 5% β-mercaptoethanol, 0.02 mg/mL bromophenol blue] and sonicated for 20 minutes. The homogenates were centrifuged at 14,900 g for 15 min at 4° C. Proteins in a […] of the supernatant were separated by SDS-PAGE (8% acrylamide gels) and transferred to nitrocellulose membranes. The membranes were blocked for 2 hours in 5% non-fat dried milk in buffer containing 20 mM Tris-HCl, pH 8.0, 150 mM NaCl, and 0.01% Tween-20 (TBST). The blots were then probed with an antibody directed against the phosphorylated form of MAPK1/2 (Calbiochem, San Diego, Calif.) at 0.1 μg/mL in TBST containing 5% BSA overnight at 4° C., followed by a 1 hour incubation in HRP-conjugated secondary anti-mouse antibody (Sigma, St. Louis, Mo.) at room temperature in TBST containing 5% non-fat dried milk. Immunoreactive bands were visualized using the enhanced chemiluminescence method (Perkin Elmer, Waltham, Mass.). The blots were stripped at 55° C. for 30 minutes in stripping buffer [62.5 mM Tris-HCl pH 6.8, 2% SDS, 0.1M β-mercaptoethanol] followed by re-probing with an antibody directed against actin (1:5000 dilution, Sigma, St. Louis, Mo.) in TBST containing 5% non-fat dried milk and incubation in HRP-conjugated secondary anti-rabbit antibody. The immunoreactive bands were digitally scanned on an EPSON scanner and analyzed using NIH ImageJ v1.38x. The amount of phosphorylated MAPK in each sample was standardized to the amount of total actin protein in the sample.
To determine if compound D3 and NGF induced glycoconjugates secretion via activation of the MAPK pathway, cultured goblet cells from 3 independent rats were stimulated by 10 and 50 μM compound D3, 1 and 10 nM NGF or PMA (100 nM, the positive control) for 5 minutes and MAPK activity was measured by western blot analysis. A representative western blot from 3 independent rat goblet cell cultures is shown in FIG. 9, and the quantification is shown in FIG. 10. There was a statistically significant effect of treatment on MAPK activation (P<0.0001). Compound D3 increased MAPK activity above basal by 2.5±0.3 fold at 10 μM and 2.2±0.5 fold at 50 μM and NGF increased MAPK activity by 2.8±0.5 at 1 nM (P<0.05) and 1.7±0.2 at 10 nM.

Test [1] concerns rat conjunctival goblet cells. Kind of test: Glycoconjugate secretion from rat conjunctival goblet cells, ELLA (Example 1). Particulars: 2 hours, mean±sem. It counts as cell-based. The protocol: Cells derived from the explants were grown in RPMI 1640 supplemented with 10% fetal bovine serum (FBS) and penicillin (100 U/mL)/streptomycin (100 μg/mL) at 37° C. in a humidified 5% CO2-atmosphere for seventy-two hours. Contaminating nongoblet cells were removed by scraping them from the plate. During this time, goblet cells migrated from the pieces and began to proliferate. After one week, the goblet cells were trypsinized and plated in twenty-four well culture plates with RPMI-1640 media supplemented with 10% FBS.
To measure glycoconjugate secretion, the conjunctival goblet cells were grown to confluence and were serum deprived for two hours before addition of nerve growth factor (NGF), carbachol (Cch), compound D3, compound 3Aa and compound 3Ak for two hours. Compounds D3, 3Aa and 3Ak were administered at concentrations of 30 μm (micromolar), 10 μM, 1 μM and 0.3 μM. The vehicle used to dissolve the compounds, dimethyl sulfoxide (DMSO) was also included. DMSO was used as the basal control for the 30 μM concentration of compound, which was at 0.1% (v/v). The cholinergic agonist carbachol (Cch), added at 100 μM (micromolar), was a positive control for glycoconjugate secretion. The amount of glycoconjugate secreted into the media was measured by enzyme-linked lectin assay (ELLA). The media were collected and analyzed for amount of the lectin-detectable glycoconjugates, including mucins. The amount of secretion was measured by using the lectin UEA-I which is specific for rat conjunctival goblet cell mucins. Biotinylated UEA-I lectin and alkaline phosphatase-labeled streptavidin were used as described in Rios, J. D., et al., “Role of Neurotrophins and Neurotrophin Receptors in Rat Conjunctival Goblet Cell Secretion and Proliferation, Ophthalmology & Visual Science, 48: 1543-1551 (2007), the entire content of which is incorporated herein by reference. The cells were removed and sonicated, and the cell homogenate was analyzed for the total amount of protein by using the Bradford protein assay. […] Glycoconjugate secretion was expressed as the increase (x-fold) over basal.
Data for CGC glycoconjugate secretion and proliferation were expressed as the increase (x-fold) above basal value, which was standardized to 1.0. For example, for the 0.3 μM (micromolar), 1 μM and 10 μM doses, the CGC glycoconjugate secretion and proliferation were expressed as test compound over untreated cells. For the 30 μM dose, the CGC glycoconjugate secretion and proliferation were expressed as test compound over DMSO untreated cells. Results are expressed as the mean±sem.

With `NCCCC[C@@H]1NC(=O)[C@H](CCC(=O)O)NC(=O)c2cc([N+](=O)[O-])ccc2OCCC(C(=O)NCC(=O)O)NC1=O` (stereo partly drawn) [Compound D3], the entries for the “MAPK activity above basal” value with p42/44 MAPK (10 μM) and with p42/44 MAPK (50 μM) were 2.5±0.3 fold and 2.2±0.5 fold, respectively. In addition, the CGC glycoconjugate secretion is on record as 1.3±0.2 fold above basal in test [1] (0.3 μM); 1.6±0.2 fold above basal in test [1] (1 μM); 1.6±0.3 fold above basal in test [1] (10 μM); 1.7±0.7 fold above basal in test [1] (30 μM, over DMSO basal).

“NGF: nerve growth factor (recombinant human), positive control”: the “MAPK activity above basal” value amounted to 2.8±0.5 fold with p42/44 MAPK (1 nM) and 1.7±0.2 fold in the test on p42/44 MAPK (10 nM). In test [1] (NGF, concentration not given), this molecule had a CGC glycoconjugate secretion of 1.3±0.1 fold above basal.
